Assay results as given in publication PMC7069095, “A cell-permeable peptide-based PROTAC against the oncoprotein CREPT proficiently inhibits pancreatic cancer” (Theranostics, 2020).
No end group written: not given here.

Legend:
Flag-CREPT = target: T1, Flag-CREPT (Homo sapiens, UniProt Q9NQG5); test: GST pull-down; type: binding; conditions: GST-tagged proteins purified from mammalian (HEK293T) cells
T1 construct: expressed in transfected cells; host or cells: HEK293T
T1 sequence (Q9NQG5 1-326): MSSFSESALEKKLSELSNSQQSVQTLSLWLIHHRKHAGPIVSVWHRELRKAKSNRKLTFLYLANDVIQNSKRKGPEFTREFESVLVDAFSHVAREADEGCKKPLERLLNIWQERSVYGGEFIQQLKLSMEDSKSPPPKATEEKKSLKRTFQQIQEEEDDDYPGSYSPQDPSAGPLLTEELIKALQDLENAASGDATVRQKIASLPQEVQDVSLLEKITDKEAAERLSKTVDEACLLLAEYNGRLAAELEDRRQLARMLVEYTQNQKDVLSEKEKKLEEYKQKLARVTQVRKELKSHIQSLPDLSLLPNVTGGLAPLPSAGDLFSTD
Description: HEK293T cells were plated in 100 mm dishes and then transfected with the indicated plasmids. After 24 h, cells were harvested using RIPA buffer with mixed protease inhibitors. Cell lysates were incubated with 30 μL of GST-tagged Sepharose beads and 10 μg of purified proteins from either E. coli or HEK293T cells at 4 °C overnight. Beads were eluted five times with lysis buffer. Western blot was performed using an antibody against GST (Cell Signaling Technology) to analyze the association.

Myc-CREPT and Myc-CCT = test: Exogenous IP experiment in HEK293T cells; type: binding; conditions: GST-tagged CREPT ligand
Description: For exogenous immunoprecipitation assays, HEK293T cells were plated in 60 mm dishes and then transfected with the indicated plasmids. After 24 h, cells were harvested using RIPA buffer (50 mM Tris-HCl pH 8.0, 2 mM EDTA pH 8.0, 150 mM NaCl, 1% NP-40, 0.5% sodium deoxycholate, 0.1% SDS) with mixed protease inhibitors. Cell lysates were incubated with 2 μg of the indicated antibodies and 30 μL of protein A/G-Sepharose beads at 4 °C overnight. Beads were eluted five times with lysis buffer (50 mM Tris-HCl pH 7.6, 1 mM EDTA pH 8.0, 165 mM NaCl, 0.5% NP-40), and thereafter, a western blot assay was performed to analyze the association by using the indicated antibodies. Western blot was performed as previously reported. Anti-β-actin and anti-Flag antibodies were purchased from Sigma. Anti-Myc antibody was purchased from Santa Cruz Biotechnology. Antibody against CREPT was produced in the laboratory.

Panc-1 cells = test: Flow cytometry, entry of FITC-labeled peptides into cells; type: cell-based; conditions: flow cytometry, FITC-labeled peptides, 10 μM, Panc-1 cells, triplicate; in comparison with PRTC, PRTC-m or PRTC-v
Description: To examine whether PRTC could permeate into pancreatic cancer cells, we synthesized fluorescein isothiocyanate (FITC) labeled PRTC, PRTC-m, PRTC-v, PRTC-r (PRTC without RRRRK) as well as TAT (a widely used cell penetrating peptide, as a positive control).
Figure 3 Identification of the permeability of PRTC in Panc-1 cells. (A) Entry of FITC- labeled peptides into Panc-1 cells tested by flow cytometry. FITC-TAT is the positive control. Measurements were performed in triplicate. (B) Quantification of cellular uptake of Panc-1 cells treated with different concentrations of FITC-PRTC. (C) Confocal microscope images of Panc-1 cells treated with 10 μM FITC labeled peptides. Scale bars, 10 μm. (D) Confocal microscope images of Panc-1 cells treated with different dosages of FITC-PRTC. Scale bars, 10 μm.

Substance: GST-CL: GST protein tagged with CREPT ligand (CL) (KDVLSEKEKKLEEYKQKLARV; also: GST tag, end not given here)
- pull down of Flag-CREPT in vitro (Flag-CREPT): able to pull down
- binding in exogenous IP (Myc-CREPT and Myc-CCT): strongly binds

Substance: IYP (OH) AL-AHX-KDVLSEKEKKLEEYKQKLARV [PRTC-r, PRTC without RRRRK]
- fluorescence intensity in the cells (cell entry) (Panc-1 cells): obviously decreased
